From patent US20170291905A1, “ARGININE […] INHIBITORS AND USES THEREOF” (Epizyme, Inc., priority 2014, published 2017) come the findings set out here.

In the assay the target is T1, full-length human PRMT1 isoform 1 (GST-tagged) (Homo sapiens, UniProt Q99873).
T1 construct: GST-tagged PRMT1 was eluted with 50 mM Tris, 2 mM glutathione, pH 7.8, dialysed in buffer A and concentrated; made in house; host or cells: High Five insect cells (baculovirus)
T1 sequence (Q99873 with tags, fused parts or gaps): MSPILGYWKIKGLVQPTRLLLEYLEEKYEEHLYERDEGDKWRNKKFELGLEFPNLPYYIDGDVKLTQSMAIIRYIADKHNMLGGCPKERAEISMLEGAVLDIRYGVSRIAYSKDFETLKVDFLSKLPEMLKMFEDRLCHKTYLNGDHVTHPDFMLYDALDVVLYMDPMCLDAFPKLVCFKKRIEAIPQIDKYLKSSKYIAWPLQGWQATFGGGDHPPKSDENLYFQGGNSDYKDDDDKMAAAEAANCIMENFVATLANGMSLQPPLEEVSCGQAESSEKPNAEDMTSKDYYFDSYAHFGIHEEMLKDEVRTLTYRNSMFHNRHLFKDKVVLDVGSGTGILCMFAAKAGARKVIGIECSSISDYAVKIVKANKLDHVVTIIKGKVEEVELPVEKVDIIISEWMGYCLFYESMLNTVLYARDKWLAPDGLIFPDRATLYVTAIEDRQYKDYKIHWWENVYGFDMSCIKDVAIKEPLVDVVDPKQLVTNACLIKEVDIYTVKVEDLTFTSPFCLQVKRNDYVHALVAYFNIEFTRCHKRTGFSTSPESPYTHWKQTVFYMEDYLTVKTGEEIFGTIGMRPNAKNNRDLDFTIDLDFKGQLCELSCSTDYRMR
Nature of the assay: PRMT1 biochemical assay (3H-SAM Flashplate, histone H4 36-50 peptide). The following applies: 0.5 nM PRMT1, 30 min preincubation, 20 nM peptide. The text has this:
S-adenosylmethionine (SAM), S-adenosylhomocysteine (SAH), bicine, Tween20, dimethylsulfoxide (DMSO), bovine skin gelatin (BSG), and Tris(2-carboxyethyl)phosphine hydrochloride solution (TCEP) were purchased from Sigma-Aldrich at the highest level of purity possible. ^3H-SAM was purchase from American Radiolabeled Chemicals with a specific activity of 80 Ci/mmol. 384-well streptavidin Flashplates were purchased from PerkinElmer.
Peptide representative of human histone H4 residues 36-50 was synthesized with an N-terminal linker-affinity tag motif and a C-terminal amide cap by 21st Century Biochemicals. The peptide was purified by high-performance liquid chromatography (HPLC) to greater than 95% purity and confirmed by liquid chromatography mass spectrometry (LC-MS). The sequence was Biot-Ahx-[…]-amide (SEQ ID NO.:1).
Full-length human PRMT1 isoform 1 (NM_001536.5) transcript clone was amplified from an HEK 293 cDNA library, incorporating flanking 5′ sequence encoding a FLAG tag ([…]) (SEQ ID NO.:2) fused directly to Met 1 of PRMT1. The amplified gene was subcloned into pFastBacI (Life Technologies) modified to encode an N-terminal GST tag and a TEV cleavage sequence
Recombinant baculovirus were generated according to Bac-to-Bac kit instructions (Life Technologies). Protein over-expression was accomplished by infecting exponentially growing High Five insect cell culture at 1.5×10^6 cell/ml with 1:100 ratio of virus. Infections were carried out at 27° C. for 48 hours, harvested by centrifugation, and stored at −80° C. for purification.
GST-tagged PRMT1 was eluted with 50 mM Tris, 2 mM glutathione, pH 7.8, dialysed in buffer A and concentrated to 1 mg/mL. The purity of recovered protein was 73%. Reference: Wasilko, D. J. and S. E. Lee: “TIPS: titerless infected-cells preservation and scale-up” Bioprocess J., 5 (2006), pp. 29-32.
General Procedure for PRMT1 Enzyme Assays on Peptide Substrates.
The assays were all performed in a buffer consisting of 20 mM Bicine (pH=7.6), 1 mM TCEP, 0.005% BSG, and 0.002% Tween 20, prepared on the day of use. Compounds in 100% DMSO (1 ul) were spotted into a polypropylene 384-well V-bottom plates (Greiner) using a Platemate Plus outfitted with a 384-channel head (Thermo Scientific). DMSO (1 ul) was added to Columns 11, 12, 23, 24, rows A-H for the maximum signal control and 1 ul of SAH, a known product and inhibitor of PRMT1, was added to columns 11, 12, 23, 24, rows I-P for the minimum signal control. A cocktail (40 ul) containing the PRMT1 enzyme was added by Multidrop Combi (Thermo-Fisher). The compounds were allowed to incubate with PRMT1 for 30 min at room temperature, then a cocktail (10 ul) containing SAM and peptide was added to initiate the reaction (final volume=51 ul). The final concentrations of the components were as follows: PRMT1 was 0.5 nM, ^3H-SAM was 200 nM, non-radiolabeled SAM was 1.5 uM, peptide was 20 nM, SAH in the minimum signal control wells was 1 mM, and the DMSO concentration was 2%. The assays were stopped by the addition of non-radiolabeled SAM (10 ul) to a final concentration of 300 uM, which dilutes the ^3H-SAM to a level where its incorporation into the peptide substrate is no longer detectable. 50 ul of the reaction in the 384-well polypropylene plate was then transferred to a 384-well Flashplate and the biotinylated peptides were allowed to bind to the streptavidin surface for at least 1 hour before being washed once with 0.1% Tween20 in a Biotek ELx405 plate washer. The plates were then read in a PerkinElmer TopCount plate reader to measure the quantity of ^3H-labeled peptide bound to the Flashplate surface, measured as disintegrations per minute (dpm) or alternatively, referred to as counts per minute (cpm).
Where dpm=disintegrations per minute, cmpd=signal in assay well, and min and max are the respective minimum and maximum signal controls. […]
Usually IC50 stands for the concentration that gives 50% inhibition. A lower IC50 goes with greater potency. `CCC1(CC)C[C@]2(CC[C@@H](c3n[nH]cc3CN(C)CCNC)CC2)OC1=O` [compound 34, (5r,8r)-3,3-diethyl-8-(4-((methyl(2-(methylamino)ethyl)amino)methyl)-1H-pyrazol-3-yl)-1-oxaspiro[4.5]decan-2-one]: the IC50 was 15.2 nM. To `CNCCN(C)Cc1c[nH]nc1C1CCC(C)(C)[C@H](COCCOC)C1` (stereo partly drawn) [compound 35, {2-[({3-[(3R)-3-[(2-methoxyethoxy)methyl]-4,4-dimethylcyclohexyl]-1H-pyrazol-4-yl}methyl)(methyl)amino]ethyl}(methyl)amine] belongs 51.9 nM. With `CCCOCC1(COCCC)CCC(c2n[nH]cc2CN(C)CCNC)CC1` [compound 36, N^1-((3-(4,4-bis(propoxymethyl)cyclohexyl)-1H-pyrazol-4-yl)methyl)-N^1,N^2-dimethylethane-1,2-diamine] the figure was 7.93 nM; with `CC[C@]12CC[C@](CC)(C[C@H](c3n[nH]cc3CN(C)CCNC)C1)O2` [compound 37, N1-((3-((1R,3r,5S)-1,5-diethyl-8-oxabicyclo[3.2.1]octan-3-yl)-1H-pyrazol-4-yl)methyl)-N1,N2-dimethylethane-1,2-diamine], 25.2 nM; with `CC[C@]12CC[C@](CC)(C[C@@H](c3n[nH]cc3CN(C)CCNC)C1)O2` [compound 38, N1-((3-((1R,3s,5S)-1,5-diethyl-8-oxabicyclo[3.2.1]octan-3-yl)-1H-pyrazol-4-yl)methyl)-N1,N2-dimethylethane-1,2-diamine], 111 nM. With `CNCCN(C)Cc1ccnn1[C@H]1CC[C@]2(CC1)CC(C)(C)CO2` [compound 50, N1-((1-((5r,8r)-3,3-dimethyl-1-oxaspiro[4.5]decan-8-yl)-1H-pyrazol-5-yl)methyl)-N1,N2-dimethylethane-1,2-diamine] the figure was 20.9 nM; with `Cc1[nH]nc([C@H]2CC[C@@]3(CC2)CC(C)(C)CO3)c1CN(C)CCN` [compound 51, N1-((3-((5s,8s)-3,3-dimethyl-1-oxaspiro[4.5]decan-8-yl)-5-methyl-1H-pyrazol-4-yl)methyl)-N1-methylethane-1,2-diamine], 12 nM.

On to `Cc1[nH]nc([C@H]2CC[C@]3(CC2)CC(C)(C)CO3)c1CN(C)CCN` [compound 52, N1-((3-((5r,8r)-3,3-dimethyl-1-oxaspiro[4.5]decan-8-yl)-5-methyl-1H-pyrazol-4-yl)methyl)-N1-methylethane-1,2-diamine], for which 16 nM corresponded to half-maximal inhibition (IC50). As for `CNCCN(C)Cc1c(C)[nH]nc1[C@H]1CC[C@@]2(CC1)CC(C)(C)CO2` [compound 57], the IC50 came to 25.8 nM. `CNCCN(C)Cc1c(C)[nH]nc1[C@H]1CC[C@]2(CC1)CC(C)(C)CO2` [compound 58] registered an IC50 of 38.7 nM. With `Cc1[nH]nc(C2CCC3(CC2)CC(C)(C)CO3)c1CN(C)CCN` (stereo not shown) [compound 59] the figure was 11.4 nM. With `CCOCC1(COCC)CC=C(c2n[nH]cc2CN(C)CCNC)CC1` [compound 60] the figure was 14.9 nM. With `CNCCN(C)Cc1scnc1[C@H]1CC[C@@]2(CC1)CC(C)(C)CO2` [compound 62] the figure was 4.18 nM; with `CNCCN(C)Cc1nn(C)nc1[C@H]1CC[C@@]2(CC1)CC(C)(C)CO2` [compound 64], 31.9 nM; with `CNCCN(C)Cc1cnnn1[C@H]1CC[C@@]2(CC1)CC(C)(C)CO2` [compound 65], more than 10000 nM. As to `CNCCN(C)Cc1nn[nH]c1[C@H]1CC[C@@]2(CC1)CC(C)(C)CO2` [compound 67], the IC50 worked out at 11.5 nM. With `CNCCN(C)Cc1nncn1[C@H]1CC[C@@]2(CC1)CC(C)(C)CO2` [compound 68] the figure was 4330 nM; with `CNCCN(C)Cc1nccn1[C@H]1CC[C@@]2(CC1)CC(C)(C)CO2` [compound 69], 255 nM.

As for `CNCCN(C)Cc1nnc(C)n1[C@H]1CC[C@@]2(CC1)CC(C)(C)CO2` [compound 71], half-maximal inhibition (IC50) was put at 5100 nM.

The compound `CNCCN(C)Cc1cncn1[C@H]1CC[C@@]2(CC1)CC(C)(C)CO2` [compound 76] gave an IC50 of 14.6 nM. To `CNCCN(C)Cc1nc(C)sc1[C@H]1CC[C@@]2(CC1)CC(C)(C)CO2` [compound 77] belongs 22.9 nM; to `CNCCN(C)Cc1sc(C)nc1[C@H]1CC[C@@]2(CC1)CC(C)(C)CO2` [compound 78], 23 nM.

Compound `CN(CCN)Cc1nn(C)cc1[C@H]1CC[C@@]2(CC1)CC(C)(C)CO2` [compound 80] had an IC50 of 5.83 nM.

`CNCCN(C)Cc1nn(C)cc1[C@H]1CC[C@@]2(CC1)CC(C)(C)CO2` [compound 81] registered an IC50 of 22.8 nM. `CNCCN(C)Cc1ncsc1[C@H]1CC[C@@]2(CC1)CC(C)(C)CO2` [compound 83] had an IC50 of 14.8 nM. On to `CNCCN(C)Cc1scnc1[C@H]1CC[C@]2(CC1)CC(C)(C)CO2` [compound 84], for which the IC50 was 14 nM.

`CNCCN(C)Cc1nn(C)nc1C1CCC2(CC1)CC(C)(C)CO2` (stereo not shown) [compound 86] yielded an IC50 of 50.1 nM. As for `CNCCN(C)Cc1nn[nH]c1[C@H]1CC[C@]2(CC1)CC(C)(C)CO2` [compound 89], the IC50 was 59.7 nM. To `CNCCN(C)Cc1nncn1[C@H]1CC[C@]2(CC1)CC(C)(C)CO2` [compound 90] belongs more than 10000 nM; to `CNCCN(C)Cc1nccn1[C@H]1CC[C@]2(CC1)CC(C)(C)CO2` [compound 91], 1020 nM. `CNCCN(C)Cc1nnc(C)n1[C@H]1CC[C@]2(CC1)CC(C)(C)CO2` [compound 93] came in with an IC50 of more than 10000 nM.

Compound `CNCCN(C)Cc1c(Cl)ncn1[C@H]1CC[C@]2(CC1)CC(C)(C)CO2` [compound 97] yielded an IC50 of 318 nM. To `CNCCN(C)Cc1cncn1[C@H]1CC[C@]2(CC1)CC(C)(C)CO2` [compound 98] belongs 4360 nM; to `CNCCN(C)Cc1nc(C)sc1[C@H]1CC[C@]2(CC1)CC(C)(C)CO2` [compound 99], 35.6 nM; to `CNCCN(C)Cc1sc(C)nc1[C@H]1CC[C@]2(CC1)CC(C)(C)CO2` [compound 100], 33.5 nM. With `CN(CCN)Cc1nn(C)cc1[C@H]1CC[C@]2(CC1)CC(C)(C)CO2` [compound 102] the figure was 21.2 nM.

Turning to `CNCCN(C)Cc1nn(C)cc1[C@H]1CC[C@]2(CC1)CC(C)(C)CO2` [compound 103], the IC50 amounted to 37.2 nM.

In turn, `CN(CCN)Cc1c[nH]nc1[C@H]1CC[C@@]2(CC1)CC(C)(C)CO2` [compound 105] had an IC50 of 5.68 nM. With `CN(CCN)Cc1c[nH]nc1[C@H]1CC[C@]2(CC1)CC(C)(C)CO2` [compound 106] the figure was 45.3 nM; with `CNCCN(C)Cc1c(C)noc1[C@H]1CC[C@@]2(CC1)CC(C)(C)CO2` [compound 113], 79.5 nM; with `CNCCN(C)Cc1c(C)noc1[C@H]1CC[C@]2(CC1)CC(C)(C)CO2` [compound 114], 121 nM. For the compound `CNCCN(C)Cc1n[nH]cc1[C@H]1CC[C@@]2(CC1)CC(C)(C)CO2` [compound 115], the IC50 was 11.5 nM. With `CNCCN(C)Cc1n[nH]cc1[C@H]1CC[C@]2(CC1)CC(C)(C)CO2` [compound 116] the figure was 22.9 nM. To `CNCCN(C)Cc1nocc1[C@H]1CC[C@@]2(CC1)CC(C)(C)CO2` [compound 117] belongs 51.3 nM; to `CNCCN(C)Cc1nocc1[C@H]1CC[C@]2(CC1)CC(C)(C)CO2` [compound 118], 409 nM; to `CCOCC1(COCC)CCC(c2n[nH]cc2CN(C)CCN(C)C)CC1` [compound 121], 38 nM.
